Data set [1] has as its system M.tb strain H37Rv. Briefly: MIC against M.tb H37Rv under aerobic (replicating; MABA) conditions. Format: cell-based, Mycobacterium tuberculosis. The note with it: for MIC MABA: MIC90, Table 1; for MIC: Mycobacterium tuberculosis.
Data set [2] deals with M.tb strain H37Rv. The data set is described as follows: MIC against M.tb H37Rv under non-replicating (LORA) conditions. The note with it: for MIC LORA: MIC90, Table 1; for MIC (µg/mL) LORA: MIC90, Table 2.
For data set [3], the system named is Vero green monkey-derived epithelial kidney cells. Briefly: Mammalian cytotoxicity in Vero cells. The class given is cell-based. Conditions: for IC50: Chlorocebus sabaeus.
Setting [4] is: MIC90, Table 1, read-out: MIC MABA.
The mark [5] stands for this setting: MIC90, Table 2, read-out: MIC (µg/mL) MABA.

≈ marks a conversion by molar mass, not a printed value. Like-named read-outs stand apart in the source and are kept apart here.

The term IC50 denotes the concentration at which inhibition is half-maximal. A higher IC50 goes with a need for much substance. What is called melting point is the temperature of the solid-liquid transition.

With “2-((5-(2,4-Dichlorophenyl)pyridin-2-yl)methyl)-8-(4-methylpiperazin-1-yl)-1,2,3,4-tetrahydroisoquinoline [Compound 11]”, in data set [1], the “MIC MABA” value came to 3.6 µg/mL. Moreover, the “MIC LORA” value in data set [2] is 11 µg/mL.

Regarding “2-((5-(4-Chlorophenyl)pyridin-2-yl)methyl)-8-(4-methoxypiperazin-1-yl)-5-methyl-1,2,3,4-tetrahydroisoquinoline [Compound 13]”, the “MIC MABA” value in data set [1] is listed as 1.8 µg/mL. The “IC50 VERO” value in data set [3] (Table 1) was 12 µg/mL. Moreover, the “MIC LORA” value in data set [2] was determined as 6.1 µg/mL.

As to `CSc1ccc(N2CCN(C)CC2)c2c1CCN(Cc1ccc(-c3ccc(Cl)cc3C)cn1)C2` [Compound 14, 2-((5-(4-Chloro-2-methylphenyl)pyridin-2-yl)methyl)-8-(4-methylpiperazin-1-yl)-5-(methylthio)-1,2,3,4-tetrahydroisoquinoline], the melting point lay in the range of 65 to 68 °C. For the same compound, the MIC in data set [1] (setting [4]) is 3.4 µg/mL (≈ 6.89 µM). In data set [3] (Table 1), this compound displayed an IC50 of 11 µg/mL (≈ 22.3 µM). In addition, the “MIC LORA” value in data set [2] was 6.0 µg/mL (≈ 12.2 µM).

Turning to `Cc1cc(Cl)ccc1-c1ccc(CN2CCc3c(F)ccc(N4CCN(C)CC4)c3C2)nc1` [Compound 15, 2-((5-(4-Chloro-2-methylphenyl)pyridin-2-yl)methyl)-8-(4-methylpiperazin-1-yl)-5-fluoro-1,2,3,4-tetrahydroisoquinoline], the MIC in data set [1] (setting [4]) stood at 3.8 µg/mL (≈ 8.17 µM). In data set [3] (Table 1), this compound registered a half-maximal inhibitory concentration (IC50) of 24 µg/mL (≈ 51.6 µM). In data set [2], the “MIC LORA” value is 6.1 µg/mL (≈ 13.1 µM).

Consider `CN1CCN(c2ccc(F)c3c2CN(Cc2ccc(-c4ccc(F)cc4F)cn2)CC3)CC1` [Compound 16, 2-((5-(2,4-Difluorophenyl)pyridin-2-yl)methyl)-5-fluoro-8-(4-methylpiperazin-1-yl)-1,2,3,4-tetrahydroisoquinoline], for which the MIC in data set [1] (setting [4]) was 15 µg/mL (≈ 33.1 µM). For the same compound, the half-maximal inhibitory concentration (IC50) in data set [3] (Table 1) is 22 µg/mL (≈ 48.6 µM). Moreover, in data set [2], the “MIC LORA” value is 21 µg/mL (≈ 46.4 µM).

Compound `CN1CCN(c2ccc(F)c3c2CN(Cc2ccc(-c4ccc(Cl)cc4C(F)(F)F)cn2)CC3)CC1` [Compound 17, 2-((5-(4-Chloro-2-(trifluoromethyl)phenyl)pyridin-2-yl)methyl)-5-fluoro-8-(4-methylpiperazin-1-yl)-1,2,3,4-tetrahydroisoquinoline] displayed a melting point of 102 to 104 °C. In addition, in data set [1] (setting [4]), the MIC is 2.3 µg/mL (≈ 4.43 µM). For the same compound, 11 µg/mL (≈ 21.2 µM) corresponded to half-maximal inhibition in data set [3] (Table 1) (IC50). Further, the “MIC LORA” value in data set [2] was determined as 5.4 µg/mL (≈ 10.4 µM).

For `Cc1cc(Cl)ccc1-c1ccc(NC(=O)N2CCc3cccc(N4CCN(C)CC4)c3C2)nc1` [Compound 24, N-(5-(4-Chloro-2-methylphenyl)pyridin-2-yl)-8-(4-methylpiperazin-1-yl)-3,4-dihydroisoquinoline-2(1H)-carboxamide], in data set [1] (setting [4]), the MIC was found to be 6.2 µg/mL (≈ 13 µM). The compound further registered a half-maximal inhibitory concentration (IC50) in data set [3] (Table 1) of 11 µg/mL (≈ 23.1 µM). The “MIC LORA” value in data set [2] is 7.7 µg/mL (≈ 16.2 µM).

In the case of `Cc1ccc(N2CCN(C)CC2)c2c1CCN(C(=O)Nc1ccc(-c3ccc(Cl)cc3Cl)cn1)C2` [Compound 25, N-(5-(2,4-Dichlorophenyl)pyridin-2-yl)-5-methyl-8-(4-methylpiperazin-1-yl)-3,4-dihydroisoquinoline-2(1H)-carboxamide], the MIC in data set [1] (setting [4]) was determined as 1.95 µg/mL (≈ 3.82 µM). In data set [3] (Table 1), this compound yielded an IC50 of 12 µg/mL (≈ 23.5 µM). The “MIC LORA” value in data set [2] worked out at 1.99 µg/mL (≈ 3.9 µM).

Regarding `Cc1cc(Cl)ccc1-c1ccc(NC(=O)N2CCc3c(Cc4ccccc4)ccc(N4CCN(C)CC4)c3C2)nc1` [Compound 29, 5-Benzyl-N-(5-(4-chloro-2-methylphenyl)pyridin-2-yl)-8-(4-methylpiperazin-1-yl)-3,4-dihydroisoquinoline-2(1H)-carboxamide], the MIC in data set [1] (setting [4]) is 1.8 µg/mL (≈ 3.18 µM). Also, the IC50 in data set [3] (Table 1) came out at 11 µg/mL (≈ 19.4 µM). The “MIC LORA” value in data set [2] was 1.5 µg/mL (≈ 2.65 µM).

Compound `COc1ccc(N2CCN(C)CC2)c2c1CCN(C(=O)Nc1ccc(-c3cc(C(F)(F)F)cc(C(F)(F)F)c3)cn1)C2` [Compound 38, N-(5-(3,5-Bis(trifluoromethyl)phenyl)pyridin-2-yl)-5-methoxy-8-(4-methylpiperazin-1-yl)-3,4-dihydroisoquinoline-2(1H)-carboxamide] displayed a melting point of 106 to 109 °C. Moreover, the MIC in data set [1] (setting [4]) came out at 1.3 µg/mL (≈ 2.19 µM). The compound also gave an IC50 in data set [3] (Table 1) of 10 µg/mL (≈ 16.8 µM).

Regarding `CSc1ccc(N2CCN(C)CC2)c2c1CCN(C(=O)Nc1ccc(-c3cc(C(F)(F)F)cc(C(F)(F)F)c3)cn1)C2` [Compound 39, N-(5-(3,5-Bis(trifluoromethyl)phenyl)pyridin-2-yl)-8-(4-methylpiperazin-1-yl)-5-(methylthio)-3,4-dihydroisoquinoline-2(1H)-carboxamide], the MIC in data set [1] (setting [4]) was found to be 3.6 µg/mL (≈ 5.91 µM). In data set [3] (Table 1), the IC50 was determined as 20 µg/mL (≈ 32.8 µM). In data set [2], the “MIC LORA” value came out at 4.0 µg/mL (≈ 6.56 µM).

Take `CN1CCN(c2ccc(F)c3c2CN(C(=O)Nc2ccc(-c4ccc(Cl)c(C(F)(F)F)c4)cn2)CC3)CC1` [Compound 41, N-(5-(4-Chloro-3-(trifluoromethyl)phenyl)pyridin-2-yl)-5-fluoro-8-(4-methylpiperazin-1-yl)-3,4-dihydroisoquinoline-2(1H)-carboxamide]: in data set [1] (setting [4]), the MIC came out at 1.4 µg/mL (≈ 2.55 µM). In data set [3] (Table 1), it took 10 µg/mL (≈ 18.2 µM) to reach half-maximal inhibition (IC50). Besides, the “MIC LORA” value in data set [2] was found to be 2.9 µg/mL (≈ 5.29 µM).

As for `CN1CCN(c2cccc3c2CN(C(=O)Cc2ccc(-c4ccccc4)cn2)CC3)CC1` [Compound 44, 1-(8-(4-Methylpiperazin-1-yl)-3,4-dihydroisoquinolin-2(1H)-yl)-2-(5-phenylpyridin-2-yl)ethan-1-one], the MIC in data set [1] (setting [4]) is > 32 µg/mL. Moreover, the IC50 in data set [3] (Table 1) is > 32 µg/mL. The “MIC LORA” value in data set [2] is >32 µg/mL.

Consider `CN1CCN(c2cccc3c2CN(C(=O)Cc2ccc(-c4cccc(Cl)c4)cn2)CC3)CC1` [Compound 45, 2-(5-(3-Chlorophenyl)pyridin-2-yl)-1-(8-(4-methylpiperazin-1-yl)-3,4-dihydroisoquinolin-2(1H)-yl)ethan-1-one], for which the MIC in data set [1] (setting [4]) was found to be 15 µg/mL (≈ 32.5 µM). This compound gave an IC50 in data set [3] (Table 1) of 25 µg/mL (≈ 54.2 µM). Also, the “MIC LORA” value in data set [2] was 21.7 µg/mL (≈ 47.1 µM).

As to `CN1CCN(c2cccc3c2CN(C(=O)Cc2ccc(-c4ccc(OC(F)(F)F)cc4)cn2)CC3)CC1` [Compound 46, 1-(8-(4-Methylpiperazin-1-yl)-3,4-dihydroisoquinolin-2(1H)-yl)-2-(5-(4-(trifluoromethoxy)phenyl)pyridin-2-yl)ethan-1-one], the MIC in data set [1] (setting [4]) is 13.7 µg/mL (≈ 26.8 µM). The compound also yielded a 50% inhibitory concentration (IC50) in data set [3] (Table 1) of 20 µg/mL (≈ 39.2 µM). Moreover, the “MIC LORA” value in data set [2] is on record as 12.4 µg/mL (≈ 24.3 µM).

Turning to `Cc1cc(Cl)ccc1-c1ccc(CN2CCc3c(C)ccc(N4CCNCC4)c3C2)nc1` [Compound 52, 2-((5-(4-Chloro-2-methylphenyl)pyridin-2-yl)methyl)-5-methyl-8-(piperazin-1-yl)-1,2,3,4-tetrahydroisoquinoline], in data set [1] (setting [5]), the MIC came to 1.8 µg/mL (≈ 4.03 µM). This compound yielded an IC50 in data set [3] (Table 2) of 12 µg/mL (≈ 26.8 µM). Also, the “MIC (µg/mL) LORA” value in data set [2] worked out at 4.4 µg/mL (≈ 9.84 µM).

With `Cc1cc(Cl)ccc1-c1ccc(CN2CCc3c(C)ccc(N4CCOCC4)c3C2)nc1` [Compound 53, 4-(2-((5-(4-Chloro-2-methylphenyl)pyridin-2-yl)methyl)-5-methyl-1,2,3,4-tetrahydroisoquinolin-8-yl)morpholine], in data set [1] (setting [5]), the MIC was determined as 7.8 µg/mL (≈ 17.4 µM). Further, the IC50 in data set [3] (Table 2) is > 32 µg/mL. Moreover, the “MIC (µg/mL) LORA” value in data set [2] was 12 µg/mL (≈ 26.8 µM).

`Cc1cc(Cl)ccc1-c1ccc(CN2CCc3c(C)ccc(N4CCCCC4)c3C2)nc1` [Compound 55, 2-((5-(4-Chloro-2-methylphenyl)pyridin-2-yl)methyl)-5-methyl-8-(piperidin-1-yl)-1,2,3,4-tetrahydroisoquinoline]: the melting point fell in the range of 96 to 98 °C. Also, the MIC in data set [1] (setting [5]) was found to be 2.6 µg/mL (≈ 5.83 µM). Besides, in data set [3] (Table 2), the IC50 was > 32 µg/mL.

For the origin of these results see paper PMC7721589, “Synthesis and structure-activity relationships for tetrahydroisoquinoline-based inhibitors of Mycobacterium tuberculosis” (Bioorganic & Medicinal Chemistry, 2020).
